{"source": "PubChem BioAssay (NCI)", "assay_in_all_cases": "growth of human tumour cells (NCI), 48 h", "key": {"HT29 colon": {"tested_on": "HT29 colon"}, "MALME-3M melanoma": {"tested_on": "MALME-3M melanoma"}, "COLO 205 colon": {"tested_on": "COLO 205 colon"}, "TK-10 renal": {"tested_on": "TK-10 renal"}, "HS 578T breast": {"tested_on": "HS 578T breast"}, "MDA-MB-231 breast": {"tested_on": "MDA-MB-231 breast"}, "NCI-H460 lung": {"tested_on": "NCI-H460 lung"}, "UACC-62 melanoma": {"tested_on": "UACC-62 melanoma"}, "UO-31 renal": {"tested_on": "UO-31 renal"}, "SF-539 CNS": {"tested_on": "SF-539 CNS"}, "ACHN renal": {"tested_on": "ACHN renal"}, "SK-MEL-28 melanoma": {"tested_on": "SK-MEL-28 melanoma"}}, "note": "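All cell lines were grown in 96-well plates and treated with compound for 48 hours. TGI: concentration producing complete growth inhibition.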"}
{"compound": "O=c1/c(=C/c2ccc(-c3ccc(Cl)cc3Cl)o2)sc2n1[C@@H](c1ccc3c(c1)OCO3)C=C(c1cc(F)c(Cl)cc1Cl)N=2", "values": [{"measurement": "TGI", "setting": "HT29 colon", "value": 74.7, "unit": "µM"}, {"measurement": "TGI", "setting": "MALME-3M melanoma", "value": "> 100", "unit": "µM"}, {"measurement": "TGI", "setting": "COLO 205 colon", "value": "> 100", "unit": "µM"}, {"measurement": "TGI", "setting": "TK-10 renal", "value": 59, "unit": "µM"}, {"measurement": "TGI", "setting": "HS 578T breast", "value": "> 100", "unit": "µM"}, {"measurement": "TGI", "setting": "MDA-MB-231 breast", "value": 57.2, "unit": "µM"}, {"measurement": "TGI", "setting": "NCI-H460 lung", "value": "> 100", "unit": "µM"}, {"measurement": "TGI", "setting": "UACC-62 melanoma", "value": "> 100", "unit": "µM"}, {"measurement": "TGI", "setting": "UO-31 renal", "value": 95.1, "unit": "µM"}, {"measurement": "TGI", "setting": "SF-539 CNS", "value": "> 100", "unit": "µM"}, {"measurement": "TGI", "setting": "ACHN renal", "value": "> 100", "unit": "µM"}, {"measurement": "TGI", "setting": "SK-MEL-28 melanoma", "value": "> 100", "unit": "µM"}]}
{"compound": "CSC1NNC2(C(=O)N1)c1ccccc1-c1ccccc12", "note": "(stereo not given)", "values": [{"measurement": "TGI", "setting": "HT29 colon", "value": "> 10", "unit": "µM"}, {"measurement": "TGI", "setting": "MALME-3M melanoma", "value": "> 10", "unit": "µM"}, {"measurement": "TGI", "setting": "COLO 205 colon", "value": "> 10", "unit": "µM"}, {"measurement": "TGI", "setting": "TK-10 renal", "value": "> 10", "unit": "µM"}, {"measurement": "TGI", "setting": "HS 578T breast", "value": "> 10", "unit": "µM"}, {"measurement": "TGI", "setting": "MDA-MB-231 breast", "value": "> 10", "unit": "µM"}, {"measurement": "TGI", "setting": "NCI-H460 lung", "value": "> 10", "unit": "µM"}, {"measurement": "TGI", "setting": "UACC-62 melanoma", "value": "> 10", "unit": "µM"}, {"measurement": "TGI", "setting": "UO-31 renal", "value": "> 10", "unit": "µM"}, {"measurement": "TGI", "setting": "SF-539 CNS", "value": "> 10", "unit": "µM"}, {"measurement": "TGI", "setting": "ACHN renal", "value": "> 10", "unit": "µM"}, {"measurement": "TGI", "setting": "SK-MEL-28 melanoma", "value": "> 10", "unit": "µM"}]}
{"compound": "CCCCCCCCC[n+]1cccc(C2C(C(=O)OCC)=C(C)NC(C)=C2C(=O)OCC)c1", "values": [{"measurement": "TGI", "setting": "HT29 colon", "value": 11.7, "unit": "µM"}, {"measurement": "TGI", "setting": "MALME-3M melanoma", "value": 4.67, "unit": "µM"}, {"measurement": "TGI", "setting": "COLO 205 colon", "value": 8.06, "unit": "µM"}, {"measurement": "TGI", "setting": "TK-10 renal", "value": 25.8, "unit": "µM"}, {"measurement": "TGI", "setting": "HS 578T breast", "value": 10.7, "unit": "µM"}, {"measurement": "TGI", "setting": "MDA-MB-231 breast", "value": 10.9, "unit": "µM"}, {"measurement": "TGI", "setting": "NCI-H460 lung", "value": 19.3, "unit": "µM"}, {"measurement": "TGI", "setting": "UACC-62 melanoma", "value": 3.54, "unit": "µM"}, {"measurement": "TGI", "setting": "UO-31 renal", "value": 31.6, "unit": "µM"}, {"measurement": "TGI", "setting": "SF-539 CNS", "value": 15.6, "unit": "µM"}, {"measurement": "TGI", "setting": "ACHN renal", "value": 28.5, "unit": "µM"}, {"measurement": "TGI", "setting": "SK-MEL-28 melanoma", "value": 7.28, "unit": "µM"}]}
{"compound": "Cc1nnc(CC#N)n1NC(=O)CC#N", "values": [{"measurement": "TGI", "setting": "HT29 colon", "value": "> 100", "unit": "µM"}, {"measurement": "TGI", "setting": "MALME-3M melanoma", "value": "> 100", "unit": "µM"}, {"measurement": "TGI", "setting": "COLO 205 colon", "value": "> 100", "unit": "µM"}, {"measurement": "TGI", "setting": "TK-10 renal", "value": "> 100", "unit": "µM"}, {"measurement": "TGI", "setting": "HS 578T breast", "value": "> 100", "unit": "µM"}, {"measurement": "TGI", "setting": "MDA-MB-231 breast", "value": "> 100", "unit": "µM"}, {"measurement": "TGI", "setting": "NCI-H460 lung", "value": "> 100", "unit": "µM"}, {"measurement": "TGI", "setting": "UACC-62 melanoma", "value": "> 100", "unit": "µM"}, {"measurement": "TGI", "setting": "UO-31 renal", "value": "> 100", "unit": "µM"}, {"measurement": "TGI", "setting": "SF-539 CNS", "value": "> 100", "unit": "µM"}, {"measurement": "TGI", "setting": "ACHN renal", "value": "> 100", "unit": "µM"}, {"measurement": "TGI", "setting": "SK-MEL-28 melanoma", "value": "> 100", "unit": "µM"}]}
{"compound": "CC1(O)C(=O)OC2CC([C@]3(O)CCC4[C@@H]5C[C@H]6O[C@]67[C@@H](O)C=CC(=O)[C@]7(C)C5CC[C@@]43C)C1(C)C2", "note": "(stereo not given in full)", "values": [{"measurement": "TGI", "setting": "HT29 colon", "value": 36.5, "unit": "µM"}, {"measurement": "TGI", "setting": "MALME-3M melanoma", "value": 16.6, "unit": "µM"}, {"measurement": "TGI", "setting": "COLO 205 colon", "value": 20.7, "unit": "µM"}, {"measurement": "TGI", "setting": "TK-10 renal", "value": 23.2, "unit": "µM"}, {"measurement": "TGI", "setting": "HS 578T breast", "value": "> 96.7", "unit": "µM"}, {"measurement": "TGI", "setting": "MDA-MB-231 breast", "value": 36, "unit": "µM"}, {"measurement": "TGI", "setting": "NCI-H460 lung", "value": "> 80.5", "unit": "µM"}, {"measurement": "TGI", "setting": "UACC-62 melanoma", "value": 30.2, "unit": "µM"}, {"measurement": "TGI", "setting": "UO-31 renal", "value": "> 85.3", "unit": "µM"}, {"measurement": "TGI", "setting": "SF-539 CNS", "value": 44.5, "unit": "µM"}, {"measurement": "TGI", "setting": "ACHN renal", "value": 73.8, "unit": "µM"}, {"measurement": "TGI", "setting": "SK-MEL-28 melanoma", "value": 26, "unit": "µM"}]}
